Source: patent publication US5530126A, “Process for the preparation of substituted 6-(pyrazol-3yl)-1,4-benzoxazin-3-ones” (Monsanto Company, priority 1994, dated 1996)

Legend:
Format in all cases: in vivo
[1] = tested on: Wild buckwheat; experiment: Post-emergence herbicide test; conditions: Fallopia convolvulus, read-out: % plant inhibition (Wibw); for inhibition at 1120 g/ha: 1.12 kg/ha; for inhibition at 11210 g/ha: 11.21 kg/ha
Method in brief: (§1)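 Greenhouse-raised seedlings and perennial propagule shoots, aged 2–3 weeks, receive an atomized spray at 10 psig. The solution or suspension carries roughly 0.4% emulsifier and is applied at 200 gallons/acre; injury is rated as % inhibition after about 11 days.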

[2] = tested on: Cocklebur; experiment: Post-emergence herbicide test; conditions: Xanthium strumarium, read-out: % plant inhibition (Cobu); for inhibition at 1120 g/ha: 1.12 kg/ha; for inhibition at 11210 g/ha: 11.21 kg/ha
Method in brief: as §1

[3] = tested on: Yellow nutsedge; experiment: Post-emergence herbicide test; conditions: Cyperus, read-out: % plant inhibition (Yens); for inhibition at 1120 g/ha: 1.12 kg/ha; for inhibition at 11210 g/ha: 11.21 kg/ha
Method in brief: as §1

[4] = tested on: Velvetleaf; experiment: Post-emergence herbicide test; conditions: Abutilon theophrasti, read-out: % plant inhibition (Vele); for inhibition at 1120 g/ha: 1.12 kg/ha; for inhibition at 11210 g/ha: 11.21 kg/ha
Method in brief: as §1

[5] = tested on: Indian Mustard; experiment: Post-emergence herbicide test; conditions: Brassica juncea, read-out: % plant inhibition (Inmu); for inhibition at 1120 g/ha: 1.12 kg/ha; for inhibition at 11210 g/ha: 11.21 kg/ha
Method in brief: as §1

[6] = tested on: Downy Brome; experiment: Post-emergence herbicide test; conditions: Bromus tectorum, read-out: % plant inhibition (Dobr); for inhibition at 1120 g/ha: 1.12 kg/ha; for inhibition at 11210 g/ha: 11.21 kg/ha
Method in brief: as §1

[7] = tested on: Annual bluegrass; experiment: Post-emergence herbicide test; conditions: read-out: % plant inhibition (Anbg); for inhibition at 1120 g/ha: 1.12 kg/ha; for inhibition at 11210 g/ha: 11.21 kg/ha
Method in brief: as §1

[8] = tested on: Morningglory; experiment: Post-emergence herbicide test; conditions: Ipomoea, read-out: % plant inhibition (Mogl); for inhibition at 1120 g/ha: 1.12 kg/ha; for inhibition at 11210 g/ha: 11.21 kg/ha
Method in brief: as §1

[9] = tested on: Barnyardgrass; experiment: Post-emergence herbicide test; conditions: Echinochloa crus-galli, read-out: % plant inhibition (Bygr); for inhibition at 1120 g/ha: 1.12 kg/ha; for inhibition at 11210 g/ha: 11.21 kg/ha
Method in brief: as §1

[10] = tested on: Seedling johnsongrass; experiment: Post-emergence herbicide test; conditions: Sorghum halepense, read-out: % plant inhibition (Sejg); for inhibition at 1120 g/ha: 1.12 kg/ha; for inhibition at 11210 g/ha: 11.21 kg/ha
Method in brief: as §1

[11] = tested on: Wild buckwheat; experiment: Pre-emergence herbicide test; conditions: Fallopia convolvulus, read-out: % plant inhibition (Wibw); for inhibition at 1120 g/ha: 1.12 kg/ha; for inhibition at 11210 g/ha: 11.21 kg/ha
Method in brief: (§2)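 Seeds or perennial propagules sown on compacted topsoil in pans; known amount of active ingredient in organic solvent (e.g., acetone) or water applied directly to seed bed, then covered with untreated topsoil. Greenhouse, bottom-watered; % inhibition scored about 10-14 days (usually 11 days) after seeding.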

[12] = tested on: Cocklebur; experiment: Pre-emergence herbicide test; conditions: Xanthium strumarium, read-out: % plant inhibition (Cobu); for inhibition at 1120 g/ha: 1.12 kg/ha; for inhibition at 11210 g/ha: 11.21 kg/ha
Method in brief: as §2

[13] = tested on: Yellow nutsedge; experiment: Pre-emergence herbicide test; conditions: Cyperus, read-out: % plant inhibition (Yens); for inhibition at 1120 g/ha: 1.12 kg/ha; for inhibition at 11210 g/ha: 11.21 kg/ha
Method in brief: as §2

[14] = tested on: Velvetleaf; experiment: Pre-emergence herbicide test; conditions: Abutilon theophrasti, read-out: % plant inhibition (Vele); for inhibition at 1120 g/ha: 1.12 kg/ha; for inhibition at 11210 g/ha: 11.21 kg/ha
Method in brief: as §2

[15] = tested on: Indian Mustard; experiment: Pre-emergence herbicide test; conditions: Brassica juncea, read-out: % plant inhibition (Inmu); for inhibition at 1120 g/ha: 1.12 kg/ha; for inhibition at 11210 g/ha: 11.21 kg/ha
Method in brief: as §2

[16] = tested on: Downy Brome; experiment: Pre-emergence herbicide test; conditions: Bromus tectorum, read-out: % plant inhibition (Dobr); for inhibition at 1120 g/ha: 1.12 kg/ha; for inhibition at 11210 g/ha: 11.21 kg/ha
Method in brief: as §2

[17] = tested on: Annual bluegrass; experiment: Pre-emergence herbicide test; conditions: read-out: % plant inhibition (Anbg); for inhibition at 1120 g/ha: 1.12 kg/ha; for inhibition at 11210 g/ha: 11.21 kg/ha
Method in brief: as §2

[18] = tested on: Morningglory; experiment: Pre-emergence herbicide test; conditions: Ipomoea, read-out: % plant inhibition (Mogl); for inhibition at 1120 g/ha: 1.12 kg/ha; for inhibition at 11210 g/ha: 11.21 kg/ha
Method in brief: as §2

[19] = tested on: Barnyardgrass; experiment: Pre-emergence herbicide test; conditions: Echinochloa crus-galli, read-out: % plant inhibition (Bygr); for inhibition at 1120 g/ha: 1.12 kg/ha; for inhibition at 11210 g/ha: 11.21 kg/ha
Method in brief: as §2

[20] = tested on: Seedling johnsongrass; experiment: Pre-emergence herbicide test; conditions: Sorghum halepense, read-out: % plant inhibition (Sejg); for inhibition at 1120 g/ha: 1.12 kg/ha; for inhibition at 11210 g/ha: 11.21 kg/ha
Method in brief: as §2

SMILES | inhibition at 1120 g/ha [1] | inhibition at 1120 g/ha [2] | inhibition at 1120 g/ha [3] | inhibition at 1120 g/ha [4] | inhibition at 1120 g/ha [5] | inhibition at 1120 g/ha [6] | inhibition at 1120 g/ha [7] | inhibition at 1120 g/ha [8] | inhibition at 1120 g/ha [9] | inhibition at 1120 g/ha [10] | inhibition at 1120 g/ha [11] | inhibition at 1120 g/ha [12] | inhibition at 1120 g/ha [13] | inhibition at 1120 g/ha [14] | inhibition at 1120 g/ha [15] | inhibition at 1120 g/ha [16] | inhibition at 1120 g/ha [17] | inhibition at 1120 g/ha [18] | inhibition at 1120 g/ha [19] | inhibition at 1120 g/ha [20] | further results
Cn1nc(-c2cc(C=O)c(Cl)cc2F)c(Cl)c1C(F)(F)F [Compound 133, 2-chloro-5-[4-chloro-1-methyl-5-(trifluoromethyl)-1H-pyrazol-3-yl]-4-fluorobenzaldehyde] | 80% | 100% | 40% | 100% | 40% | 20% | 0% | 100% | 50% | 50% | 70% | 40% | 20% | 100% | 100% | 0% | 20% | 70% | 80% | 80% | –
Cn1nc(-c2cc(CC#N)c(Cl)cc2F)c(Cl)c1C(F)(F)F [Compound 115] | 100% | 60% | 20% | 100% | 60% | 20% | 40% | 60% | 80% | 40% | 90% | 20% | 0% | 100% | 100% | 70% | 40% | 80% | 80% | 70% | –
Cn1nc(-c2cc(CC(=O)O)c(Cl)cc2F)c(Cl)c1C(F)(F)F [Compound 111] | – | – | – | – | – | – | – | – | – | – | – | – | – | – | – | – | – | – | – | – | inhibition at 11210 g/ha [1]: 100%; inhibition at 11210 g/ha [2]: 100%; inhibition at 11210 g/ha [3]: 30%; inhibition at 11210 g/ha [4]: 100%; inhibition at 11210 g/ha [5]: 80%; inhibition at 11210 g/ha [6]: 20%; inhibition at 11210 g/ha [7]: 0%; inhibition at 11210 g/ha [8]: 100%; inhibition at 11210 g/ha [9]: 60%; inhibition at 11210 g/ha [10]: 20%; inhibition at 11210 g/ha [11]: 100%; inhibition at 11210 g/ha [12]: 90%; inhibition at 11210 g/ha [13]: 60%; inhibition at 11210 g/ha [14]: 100%; inhibition at 11210 g/ha [15]: 100%; inhibition at 11210 g/ha [16]: 70%; inhibition at 11210 g/ha [17]: 80%; inhibition at 11210 g/ha [18]: 100%; inhibition at 11210 g/ha [19]: 40%; inhibition at 11210 g/ha [20]: 80%
Cc1cc(-c2c(Cl)c(C(F)F)nn2C)c(F)cc1Cl [Compound 64] | – | – | – | – | – | – | – | – | – | – | – | – | – | – | – | – | – | – | – | – | inhibition at 11210 g/ha [1]: 80%; inhibition at 11210 g/ha [2]: 20%; inhibition at 11210 g/ha [3]: 0%; inhibition at 11210 g/ha [4]: 60%; inhibition at 11210 g/ha [5]: 20%; inhibition at 11210 g/ha [6]: 0%; inhibition at 11210 g/ha [7]: 20%; inhibition at 11210 g/ha [8]: 60%; inhibition at 11210 g/ha [9]: 30%; inhibition at 11210 g/ha [10]: 20%; inhibition at 11210 g/ha [11]: 100%; inhibition at 11210 g/ha [12]: 10%; inhibition at 11210 g/ha [13]: 10%; inhibition at 11210 g/ha [14]: 100%; inhibition at 11210 g/ha [15]: 100%; inhibition at 11210 g/ha [16]: 90%; inhibition at 11210 g/ha [17]: 90%; inhibition at 11210 g/ha [18]: 80%; inhibition at 11210 g/ha [19]: 80%; inhibition at 11210 g/ha [20]: 80%
C#CCOCc1cc(-c2nn(C)c(C(F)(F)F)c2Cl)c(F)cc1Cl [Compound 120] | 100% | 90% | 10% | 100% | 70% | 50% | 40% | 100% | 80% | 80% | 100% | 30% | 10% | 100% | 90% | 70% | 70% | 80% | 80% | 80% | –
